This experiment deals with T1, WHMpeV (MpeV from WH8020) (Synechococcus sp. WH 8020, UniProt Q02178).
T1 construct: His-tagged, in pCDF-Duet, co-expressed in E. coli with RS9916 cpeS, cpeZ, ho1/pebS and a PE beta-subunit
T1 sequence (Q02178 1-301): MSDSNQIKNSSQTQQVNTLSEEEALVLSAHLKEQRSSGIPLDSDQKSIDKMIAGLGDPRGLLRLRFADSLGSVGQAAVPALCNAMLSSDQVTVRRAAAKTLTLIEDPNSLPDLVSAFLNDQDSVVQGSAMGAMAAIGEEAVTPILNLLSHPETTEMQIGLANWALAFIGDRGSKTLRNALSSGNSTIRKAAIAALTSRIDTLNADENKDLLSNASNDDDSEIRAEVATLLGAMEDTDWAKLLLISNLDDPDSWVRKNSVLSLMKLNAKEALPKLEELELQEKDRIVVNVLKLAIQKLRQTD
Nature of the experiment: co-expression in E. coli; absorbance, zinc fluorescence, LC-MS-MS of the product subunit. The experiment is classed as cell-based.

The record followed here is publication PMC9705338, “The phycoerythrobilin isomerization activity of MpeV in Synechococcus sp. WH8020 is prevented by the presence of a histidine at position 141 within its phycoerythrin-I β-subunit substrate” (Frontiers in Microbiology, 2022).

For the compound `C=CC1=C(C)C(CC2=NC(=Cc3[nH]c(C=C4NC(=O)C(C)C4=CC)c(C)c3CCC(=O)O)C(CCC(=O)O)=C2C)NC1=O` (centres unmarked) [phycoerythrobilin], the “co-expression in E. coli; absorbance, zinc fluorescence, LC-MS-MS of the product” value (bilin acceptor WHCpeB (ligation without isomerization), RSCpeB or WHMpeB (ligation with isomerization), with RSCpeZ and RSCpeS) is on record as “WHMpeV acts as a PEB lyase-isomerase, doubly ligating PUB on RSCpeB”.
Regarding `C=CC1=C(C)[C@@H](CC2=N/C(=C\c3[nH]c(C[C@H]4NC(=O)C(C)=C4C=C)c(C)c3CCC(=O)O)C(CCC(=O)O)=C2C)NC1=O` [phycourobilin], the “co-expression in E. coli; absorbance, zinc fluorescence, LC-MS-MS of the product” value (covalent, protein-bound product on RSCpeB, WHMpeB and WHCpeB H141L) is “WHMpeV is capable of isomerizing activity on both WHMpeB and RSCpeB”.
